Source: patent US20140227173A1, “CANCER TREATMENT WITH GAMMA-SECRETASE INHIBITORS” (The Johns Hopkins University, priority 2006, published 2014)
“Also recorded” adds a separate entry of the source.

What was measured:
[1] = Behavioral or physical changes in treated animals; type: in vivo, mice; details: 0.5 mg i.p. for five consecutive days
Procedure: As a test of the requirement for ongoing Notch activity during tumor engraftment, animals were treated with GSI-18 after subcutaneously injecting DAOY and DAOY:NICD2 cells into their left and right flanks. A treatment group of four mice received intraperitoneal injections containing 0.5 mg GSI-18 in DMSO for five consecutive days, beginning on the day of xenograft initiation, while the control group was treated with vehicle alone.

[2] = tested on: panel of 10 human pancreatic cancer cell lines; test: MTT growth assay; type: cell-based; details: 96 hours; dosages of 2, 5, and 10 μM
[3] = tested on: D425; test: Flow cytometric analysis of CD133-positive fraction; type: cell-based; details: 2 μM
Source text: (§1) The effects of Notch on the CD133-positive CSC subpopulation were first examined. Singh and colleagues have shown that only CD133-positive MB and glioblastoma cells are able to form multipotent neurosphere clones or tumor xenografts (6, 12). Another type of brain tumor, ependymoma, also appears to contain a small fraction of CD133-positive cells uniquely capable of initiating tumor xenografts (9). […] The D283Med and D425Med lines, which grow in suspension, contained higher percentages of CD133 positive cells. Sorting of DAOY cultures using magnetic beads coated with antibodies specific for CD133 generated an enriched population in which 30% of cells expressed the stem cell marker, and a negative population in which less than 1% of cells were CD133-positive. […] Thus Notch signaling appears to be especially active in CSC, raising the possibility that inhibition of this pathway may target the CSC population.
(§2) The DAOY, PFSK, D283 and D425 Med cell lines were obtained from the American Type Culture Collection. The low-passage MB line MB2 was derived from a tumor resected at Johns Hopkins Hospital. For treatment studies, cell were plated and allowed to grow overnight in MEM (Invitrogen, Carlsbad, Calif.) containing 10% FBS, then media was replaced the next morning with low serum (0.5% FBS) MEM containing GSI dissolved in DMSO. RNA and protein extractions, and all cell-based assays, were performed 48 hours after drug application unless otherwise noted. All experiments with error bars were performed in triplicate and shown as mean values with standard error unless otherwise noted. Cell mass was measured using CellTITER assays according to the manufacturer's instructions (Promega, Madison, Wis.). Cell number and viability were assessed using the Guava PCA and Viacount reagent according to instructions (Guava Technologies, Heyward, Calif.). Soft agar assays were performed as previously described (15) and scored either manually after 4 weeks or using as automated reader after 6 weeks. The constitutively active Akt stable cell line was made by transfecting DAOY cells with myristolated Akt (pCB6-IMy-Akt-HA) or control (pCB6+) plasmids (kind gifts from Susan J. Baker) and selecting and maintaining clones in 0.8 mg/ml G418. Soft agar assays were performed as previously described, with colonies counted using an automated reader (15).
(§3) Flow cytometric analysis of S-phase fraction and cell cycle kinetics was performed using a FACSCalibur (Becton Dickinson, San Jose, Calif.) with CELL Quest, version 3.3 software (15). CD133 studies were performed using the same instrument, with antibodies from Miltenyi (Miltenyi Biotec, Auburn, Calif.) according to the manufacturer's instructions. Cells expressing levels of CD133 higher than those seen in IgG controls were considered positive. For analyses of side population, cells (10^6/ml) were incubated with Hoechst 33342 (3 μM, Molecular Probes, Carlsbad, Calif.) for 90 minutes at 37° C. in DMEM containing 2% FBS. Prior to analysis, cells were washed and resuspended in 2 μg/ml PI (Sigma, St. Louis, Mo.). Cells were analyzed on a LSR flow cytometer equipped with 424/44 nm band pass and 670 nm long pass optical filters (Omega Optical, Brattleboro, Vt.). To ensure proper identification of SP cells, cells were incubated as above with the addition of 50 μM verapamil (Sigma).

[4] = tested on: PFSK; test: as above; type: cell-based; details: 2 μM, p<0.01
Source text: as §1, §2, §3

[5] = tested on: DAOY; test: as above; type: cell-based; details: 2 μM, 48 hours
Source text: as §1, §2, §3

[6] = tested on: D283; test: as above; type: cell-based; details: 2 μM
Source text: as §1, §2, §3

[7] = tested on: Hes1, a Notch pathway target gene; test: Hes1 protein expression in GBM neurosphere cells; type: cell-based
Procedure: (§4) (A, B) CD133 is expressed in GBM neurosphere line HSR-GBM1a. (C) The total cell number was decreased upon GSI-18 treatment for 48 h in this line and in the subclones of the line. […] (E) Protein expression of Hes1, a Notch pathway target gene, was reduced upon GSI-18 treatment in GBM neurosphere cells.

[8] = tested on: GBM neurosphere line HSR-GBM1a; test: CD133 expression in GBM neurosphere culture; type: cell-based; details: 2 μM
Procedure: as §4
(§5) It has been shown that the Notch signaling pathway regulates normal stem cells in the Central Neural System (CNS), and that GBMs contain cancer stem cells (CSCs) with higher Notch activity (Cancer Research, 64:7011-21, 2004; Cancer Cell, 9:391-403, 2006). However, it has not been known if Notch pathway blockade could target CSCs in GBM. […] In the present study, we used GBM neurospheres to examine the effects of Notch pathway blockade in GBM. […] Furthermore, overexpression of an active form of Notch2 (NICD2) increases tumor growth in vitro.

[9] = tested on: GBM neurosphere line HSR-GBM1a; test: Growth of GBM neurospheres in vitro (total cell number); type: cell-based
Procedure: as §4, §5

[10] = tested on: DAOY; test: Nestin immunocytochemistry, strongly nestin-positive fraction; type: cell-based; details: 2 μM, 48 hours
[11] = tested on: D425Med; test: Xenograft initiation by pretreated cells in athymic (nude) mice; type: in vivo; details: treated 48 hours, n=2
[12] = tested on: MB2; test: Nestin immunocytochemistry, nestin-positive fraction; type: cell-based; details: 2 μM, 48 hours
[13] = tested on: Notch pathway target Hes1; test: Hes1 mRNA and protein levels (RT PCR, Western blot); type: cell-based
Procedure: as §2, with “The constitutively active Akt stable cell line was made by transfecting DAOY cells with myristolated Akt (pCB6-IMy-Akt-HA) or control (pCB6+) plasmids (kind gifts from Susan J. Baker) and selecting and maintaining clones in 0.8 mg/ml G418.” left out
Quantitative RT PCR for Notch1, Notch2 and Hes1 was performed as previously described (29), with all reactions normalized to actin (Applied Biosystems, Foster City, Calif.). […]

With `O=S(=O)(NC1C2CCC1Cc1ccccc1C2)c1cccs1` (stereo not drawn) [GSI-18, [11-endo]-N-(5,6,7,8,9,10-hexahydro-6,9-methanobenzo[α][8]annulen-11-yl)-thiophene-2-sulfonamide] the “behavioral or physical changes” value [1] was “No behavioral or physical changes were noted”, the “in vitro growth measured by MTT assays” value [2] was “modest to minimal effects on growth” and the “decrease in the percentage of CD133-positive cells” value [3] was “less pronounced”. For the same compound, the “fold reduction in the percentage of CD133-positive cells” value [4] was 4.8 fold, the “fold reduction of CD133-positive stem-like fraction” value ([5]; p<0.01) was 3 fold and the “CD133-positive stem-like fraction after treatment” value ([5]; untreated 9.9%) was 3.3%. For the same compound, the “decrease in the percentage of CD133-positive cells” value [6] was “less pronounced”, the “protein expression of Hes1” value [7] was “reduced” and the “CD133 expression in the whole culture” value [8] was “significantly reduced; also recorded: reduces expression of CD133”. The total cell number ([9]; 48 h, HSR-GBM1a and subclones) was “decreased”, the “tumor growth in vitro” value ([9]; GBM neurospheres, 2 μM) was “inhibits tumor growth in vitro” and the “fold reduction of strongly nestin-positive fraction” value ([10]; p<0.01) was 4 fold. For the same compound, the “strongly nestin-positive fraction after treatment” value ([10]; untreated 10%) was 2.4%, the “engraftment of pretreated cells” value [11] was “failed to engraft” and the nestin-positive fraction [12] was “significant reduction”. The “reduction of mRNA and protein levels of Hes1” value ([13]; 2 μM, after 48 hours) was “over 70%” and the “levels that did not affect Hes1 mRNA levels” value ([13]; data not shown) was “lower than 0.4 μM”.
